According to the NIST ThermoML archive (doi:10.1016/j.jct.2009.07.013):

Details: Liquid, Vibrating tube method

Cc1ccccc1 [toluene]
mass density [kg/m3]
Details	298.15 K	323.15 K	348.15 K	373.15 K	398.15 K
100 kPa	862	838.7	814.6	–	–
1000 kPa	862.7	839.5	815.6	791.1	765.3
5000 kPa	865.7	843.1	819.8	796	771.3
10000 kPa	869.4	847.4	824.7	801.8	778.3
15000 kPa	873	851.5	829.5	807.3	784.7
20000 kPa	876.4	855.4	834	812.5	790.8
30000 kPa	882.9	862.7	842.4	822	801.6
40000 kPa	889	869.5	850	830.6	811.2
45000 kPa	891.9	872.7	853.6	834.6	815.7
50000 kPa	894.7	875.9	857.1	838.4	819.9
60000 kPa	900.2	881.9	863.8	845.8	828

CC(C)CCCC(C)CCCC(C)CCCCC(C)CCCC(C)CCCC(C)C (stereo unspecified) [2,6,10,15,19,23-hexamethyltetracosane]
mass density [kg/m3]
Details	298.15 K	323.15 K	348.15 K	373.15 K	398.15 K
100 kPa	804.9	789	773	–	–
1000 kPa	805.4	789.6	773.7	758	742.1
5000 kPa	807.8	792.3	776.7	761.3	745.9
10000 kPa	810.7	795.5	780.3	765.3	750.4
15000 kPa	813.4	798.6	783.7	769.1	754.6
20000 kPa	816.1	801.5	787	772.7	758.6
30000 kPa	821.2	807.1	793.2	779.5	766.1
40000 kPa	826	812.3	799	785.8	772.9
45000 kPa	828.3	814.8	801.7	788.7	776.1
50000 kPa	830.5	817.2	804.3	791.6	779.1
60000 kPa	834.8	821.9	809.3	797.1	785
